Results on 27 compounds are retold here after US8058475B2, “Substituted cyclohexylmethyl compounds” (Gruenenthal GmbH, priority 2005, dated 2011).

The structures appear in SMILES notation. Structures can show the parent of a compound that is named as a salt.

One assay addresses human μ-opiate receptor (Homo sapiens, UniProt P35372). The assay can be described thus: Affinity for the human μ-opiate receptor ([3H]-naloxone displacement, SPA, CHO-K1 membrane preparation). The class given is binding. The note with it: for inhibition at 1 µM: 1 μM test substance, inhibition of specific [3H]-naloxone binding, read-out: μ-Opioid receptor, % inhibition [1 μM]; for Ki: read-out: μ-Opioid receptor, Ki.

The next assay deals with T1, Serotonin (5HT) reuptake (Rattus norvegicus, UniProt P31652).
T1 construct: synaptosomes are freshly isolated from areas of rat brain; from tissue; host or cells: rat brain synaptosomes (P2 fraction)
In words: Serotonin (5HT) reuptake inhibition in rat brain synaptosomes (P2 fraction). The format is biochemical. The note with it: for inhibition at 10 µM: read-out: Serotonin reuptake, % inhibition [10 μM]. Summed up:
(§1)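 Freshly isolated rat brain synaptosomes (P2 fraction, Gray–Whittaker method) used for uptake; for NA uptake the particles came from hypothalamus of male rats.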

The target of assay [1] is T2, Noradrenaline (NA) reuptake (Rattus norvegicus, UniProt Q63380).
T2 construct: synaptosomes are freshly isolated from areas of rat brain; from tissue; host or cells: rat hypothalamus synaptosomes (P2 fraction)
The assay can be described thus: Noradrenaline (NA) reuptake inhibition in rat brain synaptosomes (hypothalamus, P2 fraction). The class given is biochemical. Conditions: for inhibition at 10 µM: read-out: NA reuptake, % inhibition [10 μM]. Summed up:
as §1

T2 sequence (Q63380 1-617): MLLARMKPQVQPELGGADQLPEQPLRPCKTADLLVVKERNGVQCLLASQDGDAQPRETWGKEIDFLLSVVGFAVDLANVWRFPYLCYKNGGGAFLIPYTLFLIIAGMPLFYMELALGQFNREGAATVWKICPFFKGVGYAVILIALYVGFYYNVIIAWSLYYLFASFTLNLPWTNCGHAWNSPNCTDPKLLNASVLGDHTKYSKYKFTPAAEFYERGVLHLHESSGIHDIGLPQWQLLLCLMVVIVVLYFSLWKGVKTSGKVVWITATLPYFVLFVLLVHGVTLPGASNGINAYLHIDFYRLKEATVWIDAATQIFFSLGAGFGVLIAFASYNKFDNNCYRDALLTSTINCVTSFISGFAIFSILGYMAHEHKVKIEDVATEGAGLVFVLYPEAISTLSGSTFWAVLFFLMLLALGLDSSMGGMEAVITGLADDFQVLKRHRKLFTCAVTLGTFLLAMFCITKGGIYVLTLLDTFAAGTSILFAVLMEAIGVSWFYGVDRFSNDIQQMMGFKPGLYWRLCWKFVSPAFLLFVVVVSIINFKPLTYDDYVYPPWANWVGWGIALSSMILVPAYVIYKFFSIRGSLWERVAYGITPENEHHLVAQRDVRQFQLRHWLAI
human μ-opiate receptor, sequence (P35372 whole entry): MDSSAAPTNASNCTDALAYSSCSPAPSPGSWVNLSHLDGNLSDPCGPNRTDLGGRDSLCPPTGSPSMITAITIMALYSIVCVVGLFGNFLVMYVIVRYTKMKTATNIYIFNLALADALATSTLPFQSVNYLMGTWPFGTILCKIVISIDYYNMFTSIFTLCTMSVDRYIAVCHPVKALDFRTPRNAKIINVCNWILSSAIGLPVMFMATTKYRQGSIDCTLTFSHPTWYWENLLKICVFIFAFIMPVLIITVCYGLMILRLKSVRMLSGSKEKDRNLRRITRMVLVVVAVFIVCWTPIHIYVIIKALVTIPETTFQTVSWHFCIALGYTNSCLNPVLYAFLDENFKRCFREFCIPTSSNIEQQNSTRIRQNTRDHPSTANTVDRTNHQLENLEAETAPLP
T1 sequence (P31652 whole entry): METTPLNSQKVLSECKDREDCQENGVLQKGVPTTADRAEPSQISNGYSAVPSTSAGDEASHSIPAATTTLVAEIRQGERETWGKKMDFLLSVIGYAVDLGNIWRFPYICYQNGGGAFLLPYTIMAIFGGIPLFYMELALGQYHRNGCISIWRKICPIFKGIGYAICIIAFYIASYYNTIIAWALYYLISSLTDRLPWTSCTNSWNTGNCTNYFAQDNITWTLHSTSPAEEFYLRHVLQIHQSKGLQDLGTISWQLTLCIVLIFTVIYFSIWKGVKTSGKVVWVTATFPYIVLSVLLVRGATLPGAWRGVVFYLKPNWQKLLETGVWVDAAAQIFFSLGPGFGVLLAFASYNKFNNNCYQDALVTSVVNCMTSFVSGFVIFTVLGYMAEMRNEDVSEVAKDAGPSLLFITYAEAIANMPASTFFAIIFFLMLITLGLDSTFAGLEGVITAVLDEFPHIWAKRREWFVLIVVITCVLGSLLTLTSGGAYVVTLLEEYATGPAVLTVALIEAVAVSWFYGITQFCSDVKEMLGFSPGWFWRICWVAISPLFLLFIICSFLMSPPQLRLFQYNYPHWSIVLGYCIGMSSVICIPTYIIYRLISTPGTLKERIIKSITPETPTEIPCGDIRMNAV

In general, inhibition refers to the share of the control response that was lost under treatment. Take `CN(C)C(CCc1ccccc1)C1CCC(O)CC1` (stereo not shown) [compound 116, 4-(1-dimethylamino-3-phenyl-propyl)-cyclohexanol]: at human μ-opiate receptor, the inhibition at 1 µM was 37%. The figures for the inhibition at 10 µM (on Serotonin (5HT) reuptake; in assay [1]) were 74% and 95%, respectively.

Take `CN(C)C(c1ccccc1)C1CCC(CO)CC1` (stereo not shown) [compound 117, [4-(dimethylamino-phenyl-methyl)-cyclohexyl]-methanol]: the inhibition at 1 µM on human μ-opiate receptor was determined as 57%. Moreover, the inhibition at 10 µM was found to be 85% on Serotonin (5HT) reuptake and 82% in assay [1].

For the compound `CN(C)C(c1ccc(F)cc1)C1CCC(CO)CC1` (stereo not shown) [compound 118, {4-[dimethylamino-(4-fluorophenyl)-methyl]-cyclohexyl}-methanol], the inhibition at 1 µM at human μ-opiate receptor was determined as 33%. The inhibition at 10 µM at Serotonin (5HT) reuptake was 90%; in assay [1], 91%.

Regarding `CN(C)C(c1cccc(F)c1)C1CCC(CO)CC1` (stereo not shown) [compound 119, {4-[dimethylamino-(3-fluorophenyl)-methyl]-cyclohexyl}-methanol], the inhibition at 1 µM at human μ-opiate receptor was 43%. Also, the inhibition at 10 µM is 88% on Serotonin (5HT) reuptake and 91% in assay [1].

`CN(C)C(c1ccc(Cl)cc1)C1CCC(CO)CC1` (stereo not shown) [compound 120, {4-[(4-chlorophenyl)-dimethylamino-methyl]-cyclohexyl}-methanol]: the inhibition at 1 µM on human μ-opiate receptor was 51%. Also, the inhibition at 10 µM on Serotonin (5HT) reuptake turned out to be 79%; in assay [1], 93%.

`CN(C)C(c1cccs1)C1CCC(CO)CC1` (stereo not shown) [compound 121, [4-(dimethylamino-thiophen-2-yl-methyl)-cyclohexyl]-methanol]: the inhibition at 1 µM on human μ-opiate receptor was 61%. Further, the inhibition at 10 µM on Serotonin (5HT) reuptake was found to be 74%; in assay [1], 66%.

On to `CN(C)C(CCc1ccccc1)C1CCC(CO)CC1` (stereo not shown) [compound 122, [4-(1-dimethylamino-3-phenyl-propyl)-cyclohexyl]-methanol], for which the inhibition at 1 µM at human μ-opiate receptor turned out to be 32%. Besides, the inhibition at 10 µM on Serotonin (5HT) reuptake was 77%; in assay [1], 97%.

The term Ki denotes the dissociation constant of the complex between target and ligand, obtained from inhibition or displacement. `CCOC(=O)C=C1CCC(C(c2ccccc2)N(C)C)CC1` (stereo not shown) [compound 123, [4-(dimethylamino-phenyl-methyl)-cyclohexylidene]-acetic acid ethyl ester]: at human μ-opiate receptor, the inhibition at 1 µM amounted to 75% and the Ki is 190 nM. The inhibition at 10 µM on Serotonin (5HT) reuptake amounted to 92%. Besides, in assay [1], the inhibition at 10 µM amounted to 66%.

As to `CCOC(=O)CC1CCC(C(c2ccccc2)N(C)C)CC1` (stereo not shown) [compound 124, [4-(dimethylamino-phenyl-methyl)-cyclohexyl]-acetic acid ethyl ester], the inhibition at 1 µM on human μ-opiate receptor amounted to 79%. Moreover, the Ki stood at 79 nM on human μ-opiate receptor and 97 nM on Serotonin (5HT) reuptake. For the same compound, the figures for the inhibition at 10 µM (on Serotonin (5HT) reuptake; in assay [1]) were 85% and 76%, respectively.

Take `CN(C)C(c1ccccc1)C1CCC(CCO)CC1` (stereo not shown) [compound 125, 2-[4-(dimethylamino-phenyl-methyl)-cyclohexyl]-ethanol]: at human μ-opiate receptor, the inhibition at 1 µM is 62%. Besides, the values for the inhibition at 10 µM (on Serotonin (5HT) reuptake; in assay [1]) were 82% and 86%, respectively.

Regarding `CCOC(=O)C=C1CCC(C(c2ccc(F)cc2)N(C)C)CC1` (stereo not shown) [compound 126, {4-[dimethylamino-(4-fluorophenyl)-methyl]-cyclohexylidene}-acetic acid ethyl ester], the inhibition at 1 µM at human μ-opiate receptor turned out to be 35%. Also, the inhibition at 10 µM at Serotonin (5HT) reuptake turned out to be 86%; in assay [1], 81%.

As to `CCOC(=O)CC1CCC(C(c2ccc(F)cc2)N(C)C)CC1` (stereo not shown) [compound 127, {4-[dimethylamino-(4-fluorophenyl)-methyl]-cyclohexyl}-acetic acid ethyl ester], at human μ-opiate receptor, the inhibition at 1 µM worked out at 34%. The results for the inhibition at 10 µM (at Serotonin (5HT) reuptake; in assay [1]) were 90% and 89%, respectively.

Take `CN(C)C(c1ccc(F)cc1)C1CCC(CCO)CC1` (stereo not shown) [compound 128, 2-{4-[dimethylamino-(4-fluorophenyl)-methyl]-cyclohexyl}-ethanol]: the inhibition at 1 µM on human μ-opiate receptor was found to be 18%. Further, the results for the inhibition at 10 µM (at Serotonin (5HT) reuptake; in assay [1]) were 84% and 88%, respectively.

In the case of `CCOC(=O)C=C1CCC(C(c2cccc(F)c2)N(C)C)CC1` (stereo not shown) [compound 129, {4-[dimethylamino-(3-fluorophenyl)-methyl]-cyclohexylidene}-acetic acid ethyl ester], the inhibition at 1 µM on human μ-opiate receptor amounted to 47%. In addition, the Ki was 540 nM at human μ-opiate receptor and 86 nM at Serotonin (5HT) reuptake. The values for the inhibition at 10 µM (at Serotonin (5HT) reuptake; in assay [1]) were 91% and 81%, respectively.

As for `CCOC(=O)CC1CCC(C(c2cccc(F)c2)N(C)C)CC1` (stereo not shown) [compound 130, {4-[dimethylamino-(3-fluorophenyl)-methyl]-cyclohexyl}-acetic acid ethyl ester], on human μ-opiate receptor, the inhibition at 1 µM worked out at 82% and the Ki came out at 230 nM. Moreover, on Serotonin (5HT) reuptake, the Ki is 16 nM and the inhibition at 10 µM came to 93%. Besides, the inhibition at 10 µM in assay [1] came out at 82%.

Consider `CN(C)C(c1cccc(F)c1)C1CCC(CCO)CC1` (stereo not shown) [compound 131, 2-{4-[dimethylamino-(3-fluorophenyl)-methyl]-cyclohexyl}-ethanol], for which, on human μ-opiate receptor, the inhibition at 1 µM is 68%. Further, the inhibition at 10 µM at Serotonin (5HT) reuptake was determined as 91%; in assay [1] it was 89%.

On to `CCOC(=O)C=CC1CCC(C(c2ccccc2)N(C)C)CC1` (stereo not shown) [compound 132, 3-[4-(dimethylamino-phenyl-methyl)-cyclohexyl]-acrylic acid ethyl ester], for which, on human μ-opiate receptor, the inhibition at 1 µM came out at 91%. For the same compound, the Ki at human μ-opiate receptor amounted to 120 nM; on Serotonin (5HT) reuptake, 420 nM; in assay [1], 590 nM. Further, the values for the inhibition at 10 µM (at Serotonin (5HT) reuptake; in assay [1]) were 86% and 84%, respectively.

Consider `CCOC(=O)CCC1CCC(C(c2ccccc2)N(C)C)CC1` (stereo not shown) [compound 133, 3-[4-(dimethylamino-phenyl-methyl)-cyclohexyl]-propionic acid ethyl ester], for which, at human μ-opiate receptor, the inhibition at 1 µM came out at 81% and the Ki amounted to 96 nM. Also, on Serotonin (5HT) reuptake, the Ki was 99 nM and the inhibition at 10 µM was determined as 89%. In addition, the inhibition at 10 µM in assay [1] is 87%.

For `CN(C)C(c1ccccc1)C1CCC(CCCO)CC1` (stereo not shown) [compound 134, 3-[4-(dimethylamino-phenyl-methyl)-cyclohexyl]-propan-1-ol], the inhibition at 1 µM on human μ-opiate receptor stood at 45%. Also, the inhibition at 10 µM turned out to be 86% at Serotonin (5HT) reuptake and 90% in assay [1].

For the compound `CCOC(=O)C=CC1CCC(C(c2ccc(F)cc2)N(C)C)CC1` (stereo not shown) [compound 135, 3-{4-[dimethylamino-(4-fluorophenyl)-methyl]-cyclohexyl}-acrylic acid ethyl ester], on human μ-opiate receptor, the inhibition at 1 µM came to 70% and the inhibitory constant (Ki) was found to be 380 nM. Further, at Serotonin (5HT) reuptake, the inhibitory constant (Ki) was 220 nM and the inhibition at 10 µM is 78%. In assay [1], the Ki is 490 nM and the inhibition at 10 µM was determined as 90%.

For `CCOC(=O)CCC1CCC(C(c2ccc(F)cc2)N(C)C)CC1` (stereo not shown) [compound 136, 3-{4-[dimethylamino-(4-fluorophenyl)-methyl]-cyclohexyl}-propionic acid ethyl ester], the inhibition at 1 µM on human μ-opiate receptor turned out to be 73%. For the same compound, the Ki amounted to 230 nM on human μ-opiate receptor, 83 nM on Serotonin (5HT) reuptake and 580 nM in assay [1]. The inhibition at 10 µM on Serotonin (5HT) reuptake was 86%; in assay [1], 89%.

In the case of `CN(C)C(c1ccc(F)cc1)C1CCC(CCCO)CC1` (stereo not shown) [compound 137, 3-{4-[dimethylamino-(4-fluorophenyl)-methyl]-cyclohexyl}-propan-1-ol], the inhibition at 1 µM on human μ-opiate receptor amounted to 13%. Moreover, the inhibition at 10 µM stood at 89% on Serotonin (5HT) reuptake and 93% in assay [1].

As for `CCOC(=O)C=CC1CCC(C(c2cccc(F)c2)N(C)C)CC1` (stereo not shown) [compound 138, 3-{4-[dimethylamino-(3-fluorophenyl)-methyl]-cyclohexyl}-acrylic acid ethyl ester], the inhibition at 1 µM on human μ-opiate receptor came to 73%. In addition, the Ki on human μ-opiate receptor came to 92 nM; at Serotonin (5HT) reuptake it was 310 nM; in assay [1], 620 nM. Also, the inhibition at 10 µM came to 84% at Serotonin (5HT) reuptake and 96% in assay [1].

On to `CCOC(=O)CCC1CCC(C(c2cccc(F)c2)N(C)C)CC1` (stereo not shown) [compound 139, 3-{4-[dimethylamino-(3-fluorophenyl)-methyl]-cyclohexyl}-propionic acid ethyl ester], for which, at human μ-opiate receptor, the inhibition at 1 µM was determined as 90% and the Ki was determined as 44 nM. For the same compound, at Serotonin (5HT) reuptake, the affinity corresponds to a Ki of 58 nM and the inhibition at 10 µM came out at 89%. Also, in assay [1], the Ki was determined as 790 nM and the inhibition at 10 µM was 94%.

For the compound `CN(C)C(c1cccc(F)c1)C1CCC(CCCO)CC1` (stereo not shown) [compound 140, 3-{4-[dimethylamino-(3-fluorophenyl)-methyl]-cyclohexyl}-propan-1-ol], the inhibition at 1 µM at human μ-opiate receptor was found to be 31%. In addition, the inhibition at 10 µM on Serotonin (5HT) reuptake was determined as 85%; in assay [1], 94%.

On to `CN(C)C(CCc1ccccc1)C1CCC(CCCO)CC1` (stereo not shown) [compound 143, 3-[4-(1-dimethylamino-3-phenyl-propyl)-cyclohexyl]-propan-1-ol], for which, at human μ-opiate receptor, the inhibition at 1 µM was found to be 24%. Also, the inhibition at 10 µM on Serotonin (5HT) reuptake stood at 90%; in assay [1], 100%.

For `CN(C)C(c1ccccc1)C1CCC(OCc2ccccc2)CC1` (stereo not shown) [compound 144, 4-(benzyloxy)cyclohexyl)-N,N-dimethyl(phenyl)methanamine hydrochloride], at human μ-opiate receptor, the inhibition at 1 µM stood at 81% and the Ki is 120 nM. In addition, the inhibition at 10 µM at Serotonin (5HT) reuptake came out at 80%. The inhibition at 10 µM in assay [1] was 75%.
